This note sets out measurements from publication PMC8972196, “A Set of Experimentally Validated Decoys for the Human CC Chemokine Receptor 7 (CCR7) Obtained by Virtual Screening” (Frontiers in Pharmacology, 2022).

The assay concerns the target T1, human CCR7 (Homo sapiens, UniProt P32248).
T1 construct: expressed in transfected cells
T1 sequence (P32248 25-378): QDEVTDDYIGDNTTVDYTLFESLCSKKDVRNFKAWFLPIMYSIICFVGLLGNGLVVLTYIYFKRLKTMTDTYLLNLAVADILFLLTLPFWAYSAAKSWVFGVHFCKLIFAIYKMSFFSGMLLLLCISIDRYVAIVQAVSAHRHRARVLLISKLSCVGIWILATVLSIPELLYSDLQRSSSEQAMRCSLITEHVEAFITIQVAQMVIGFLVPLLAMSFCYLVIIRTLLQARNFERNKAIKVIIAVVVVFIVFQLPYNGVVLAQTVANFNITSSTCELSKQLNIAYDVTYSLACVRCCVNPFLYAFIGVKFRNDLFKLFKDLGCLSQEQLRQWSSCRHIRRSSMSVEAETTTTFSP
Nature of the assay: CCL19-induced calcium mobilization assay, U87.CD4 cells expressing CCR7. In kind it is cell-based. As to conditions: for IC50: CCL19 induced calcium signaling, read-out: IC50 [μM] block CCL19 induced calcium signaling; for Decoy – 0 Active – 1: classification as decoy or active on CCR7. The method in brief: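 Calcium mobilization was recorded in U87.CD4 cells stably carrying human CXCR2 (stimulated with CXCL8), CCR7 (stimulated with CCL19) or CCR5. Cells were plated at 20,000 cells/well, cultured overnight at 37°C in 5% CO2, and incubated 45 min at room temperature in the dark before reading.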
(In general: Calcium assays in cells follow changes in intracellular calcium, usually with a dye or a luminescent sensor.)

In the case of `O=C(NCc1cccnc1-n1ccnc1)c1cc2ccccc2c(=O)[nH]1` [C215, O=C(NCc1cccnc1-n1ccnc1)c1cc2ccccc2c(=O)[nH]1], the IC50 is above 50 µM and the “Decoy – 0 Active – 1” value is given as 0.

Consider `O=C(CCC1(C(=O)O)CCC(=O)NC1)NCc1ccccc1` (stereo not drawn) [C216, O=C(CCC1(C(=O)[O-])CCC(=O)NC1)NCc1ccccc1], for which the IC50 is above 50 µM and the “Decoy – 0 Active – 1” value amounted to 0.

As for `Cc1ccccc1C(O)CNC(=O)NCCc1cccc(C(N)=O)c1` (stereo not drawn) [C217, Cc1ccccc1C(O)CNC(=O)NCCc1cccc(C(N)=O)c1], the IC50 is above 50 µM and the “Decoy – 0 Active – 1” value stood at 0.

With `COc1ccc2c(c1)CCCN2C(=O)C1CC(=O)N(c2ccc3c(c2)OCCO3)C1` (stereo not drawn) [C218, COc1ccc2c(c1)CCCN2C(=O)C1CC(=O)N(c2ccc3c(c2)OCCO3)C1], the IC50 was above 50 µM and the “Decoy – 0 Active – 1” value is reported as 0.

With `O=c1[nH]c(NCC(O)c2ccc3ccccc3c2)nc2ccccc12` (stereo not drawn) [C219, O=c1[nH]c(NCC(O)c2ccc3ccccc3c2)nc2ccccc12], the IC50 is above 50 µM and the “Decoy – 0 Active – 1” value is on record as 0.

Turning to `Cc1cccc(C2(C(=O)NC3CCC(=O)N(C)C3)CCCC2)c1` (stereo not drawn) [C220, Cc1cccc(C2(C(=O)NC3CCC(=O)N(C)C3)CCCC2)c1], the IC50 is above 50 µM and the “Decoy – 0 Active – 1” value turned out to be 0.

As for `CC1CCc2ccccc2C1NC(=O)CCC(=O)N1CCC(O)CC1` (stereo not drawn) [C221, CC1CCc2ccccc2C1NC(=O)CCC(=O)N1CCC(O)CC1], the IC50 is above 50 µM and the “Decoy – 0 Active – 1” value is listed as 0.

Regarding `CC1CCc2c(F)cccc2C1NC(=O)c1n[nH]c(=O)[nH]1` (stereo not drawn) [C222, CC1CCc2c(F)cccc2C1NC(=O)c1n[nH]c(=O)[nH]1], the IC50 was above 50 µM and the “Decoy – 0 Active – 1” value is reported as 0.

For the compound `Cc1nccn1-c1ccccc1CNC(=O)CC1NC(=O)c2ccccc21` (stereo not drawn) [C223, Cc1nccn1-c1ccccc1CNC(=O)CC1NC(=O)c2ccccc21], the IC50 was above 50 µM and the “Decoy – 0 Active – 1” value came to 0.

As for `Cc1ccc(C(=O)N2CCC3(CC2)CCC3(C)O)cc1N1CCCC1=O` (stereo not drawn) [C224, Cc1ccc(C(=O)N2CCC3(CC2)CCC3(C)O)cc1N1CCCC1=O], the IC50 is above 50 µM and the “Decoy – 0 Active – 1” value was found to be 0.

Regarding `O=C(Nc1nc2c(s1)C(=O)CC(C(=O)NC1CCCc3ccccc31)C2)c1ccncc1` (stereo not drawn) [C225, O=C(Nc1nc2c(s1)C(=O)CC(C(=O)NC1CCCc3ccccc31)C2)c1ccncc1], the concentration for half-maximal inhibition (IC50) is above 50 µM and the “Decoy – 0 Active – 1” value was determined as 0.

`O=C1CC(C(=O)NC2CCCc3ccccc32)Cc2nc(NC(=O)C3CCC3)sc21` (stereo not drawn) [C226, O=C1CC(C(=O)NC2CCCc3ccccc32)Cc2nc(NC(=O)C3CCC3)sc21]: the half-inhibitory concentration (IC50) is above 50 µM and the “Decoy – 0 Active – 1” value worked out at 0.

With `O=C(NC1CCC(C(=O)N2CCCCC2)C1)NC1C2Cc3cc(F)ccc3C21` (stereo not drawn) [C227, O=C(NC1CCC(C(=O)N2CCCCC2)C1)NC1C2Cc3cc(F)ccc3C21], the IC50 is above 50 µM and the “Decoy – 0 Active – 1” value is recorded as 0.

Consider `O=C1CC(C(=O)N2CCCC2c2ccccc2)CN1Cc1cccnc1` (stereo not drawn) [C228, O=C1CC(C(=O)N2CCCC2c2ccccc2)CN1Cc1cccnc1], for which the IC50 was above 50 µM and the “Decoy – 0 Active – 1” value is given as 0.

Consider `O=C1CC(C(=O)NCc2csc3c2CCCC3)C2(CCCC2)O1` (stereo not drawn) [C229, O=C1CC(C(=O)NCc2csc3c2CCCC3)C2(CCCC2)O1], for which the IC50 was above 50 µM and the “Decoy – 0 Active – 1” value came to 0.

For `O=C1CC(C(=O)N2CCCC2c2cccs2)CN1c1cccc2ccccc12` (stereo not drawn) [C230, O=C1CC(C(=O)N2CCCC2c2cccs2)CN1c1cccc2ccccc12], the IC50 was above 50 µM and the “Decoy – 0 Active – 1” value is recorded as 0.

For `O=C1CCC(C(=O)N2CCCC2c2ccc3c(c2)OCO3)N1` (stereo not drawn) [C231, O=C1CCC(C(=O)N2CCCC2c2ccc3c(c2)OCO3)N1], the IC50 was above 50 µM and the “Decoy – 0 Active – 1” value was 0.

Turning to `CN(Cc1csc(-c2ccccc2)n1)C(=O)c1c[nH]c(=O)c(Cl)c1` [C232, CN(Cc1csc(-c2ccccc2)n1)C(=O)c1c[nH]c(=O)c(Cl)c1], the IC50 is above 50 µM and the “Decoy – 0 Active – 1” value was found to be 0.

Regarding `O=C(CN(c1ccc(Br)cc1)S(=O)(=O)c1ccccc1)Nc1ccccc1C(=O)N1CCOCC1` [C233, c1ccc(cc1)S(=O)(=O)N(CC(=O)Nc2ccccc2C(=O)N3CCOCC3)c4ccc(cc4)Br], the IC50 is above 50 µM and the “Decoy – 0 Active – 1” value is 0.

Regarding `CN1CCN(C(=O)c2ccc(CN(c3ccccc3)S(=O)(=O)c3ccccc3)cc2)CC1` [C234, C[NH+]1CCN(CC1)C(=O)c2ccc(cc2)CN(c3ccccc3)S(=O)(=O)c4ccccc4], the IC50 is above 50 µM and the “Decoy – 0 Active – 1” value was 0.

Consider `COc1ccccc1NC(=O)CN(c1ccccc1)S(=O)(=O)c1ccc(OC)c(OC)c1` [C235, COc1ccccc1NC(=O)CN(c2ccccc2)S(=O)(=O)c3ccc(c(c3)OC)OC], for which the IC50 is above 50 µM and the “Decoy – 0 Active – 1” value turned out to be 0.

`Cc1ccc(S(=O)(=O)N(CC(=O)Nc2cccc([N+](=O)[O-])c2)Cc2ccc(F)cc2)cc1` [C236, Cc1ccc(cc1)S(=O)(=O)N(Cc2ccc(cc2)F)CC(=O)Nc3cccc(c3)[N+](=O)[O-]]: the IC50 is above 50 µM and the “Decoy – 0 Active – 1” value came out at 0.

Regarding `CC(C)c1ccc(S(=O)(=O)N2CCN(C)CC2c2ccccc2)cc1` (stereo not drawn) [C237, CC(C)c1ccc(cc1)S(=O)(=O)N2CC[NH+](CC2c3ccccc3)C], the IC50 is above 50 µM and the “Decoy – 0 Active – 1” value is given as 0.

Turning to `O=S(=O)(NCC(c1ccco1)N1CCc2ccccc21)c1ccc2c(c1)OCCO2` (stereo not drawn) [C238, c1ccc2c(c1)CCN2C(CNS(=O)(=O)c3ccc4c(c3)OCCO4)c5ccco5], the IC50 is above 50 µM and the “Decoy – 0 Active – 1” value is reported as 0.

Regarding `O=C(NCc1cccnc1)c1ccccc1NS(=O)(=O)c1ccc2c(c1)OCCO2` [C239, c1ccc(c(c1)C(=O)NCc2cccnc2)NS(=O)(=O)c3ccc4c(c3)OCCO4], the IC50 was above 50 µM and the “Decoy – 0 Active – 1” value turned out to be 0.

As for `Cc1ccc(S(=O)(=O)N(C)c2ccccc2C(=O)NCc2ccco2)cc1` [C240, Cc1ccc(cc1)S(=O)(=O)N(C)c2ccccc2C(=O)NCc3ccco3], the IC50 is above 50 µM and the “Decoy – 0 Active – 1” value worked out at 0.

Regarding `CCc1ccc(S(=O)(=O)NC2Cc3cc(C(=O)NC(C)C)nn3C2)cc1` (stereo not drawn) [C241, CCc1ccc(cc1)S(=O)(=O)NC2Cc3cc(nn3C2)C(=O)NC(C)C], the IC50 was above 50 µM and the “Decoy – 0 Active – 1” value was 0.

`COc1ccc(S(=O)(=O)N(CC(=O)N2CCN(C)CC2)Cc2ccccc2)cc1C` [C242, Cc1cc(ccc1OC)S(=O)(=O)N(Cc2ccccc2)CC(=O)N3CC[NH+](CC3)C]: the IC50 was above 50 µM and the “Decoy – 0 Active – 1” value is listed as 0.

With `CC(C)(C)c1ccc(CN(Cc2ccccc2)Cc2nc(C(=O)N3CCOCC3)co2)cc1` [C243, CC(C)(C)c1ccc(cc1)C[NH+](Cc2ccccc2)Cc3nc(co3)C(=O)N4CCOCC4], the IC50 is above 50 µM and the “Decoy – 0 Active – 1” value was determined as 0.

As for `Cc1ccc(S(=O)(=O)N(CC(O)CN2CCCCC2)c2ccccc2)cc1` (stereo not drawn) [C244, Cc1ccc(cc1)S(=O)(=O)N(CC(C[NH+]2CCCCC2)O)c3ccccc3], the IC50 is above 50 µM and the “Decoy – 0 Active – 1” value came out at 0.

In the case of `COc1ccc(S(=O)(=O)N(CC(=O)Nc2cccc(OC)c2)c2ccccc2)cc1` [C245, COc1ccc(cc1)S(=O)(=O)N(CC(=O)Nc2cccc(c2)OC)c3ccccc3], the IC50 was above 50 µM and the “Decoy – 0 Active – 1” value is 0.

Turning to `O=S(=O)(c1cccc(F)c1)N1CC(c2cccnc2)C(c2nc(C3CCCC3)no2)C1` (stereo not drawn) [C246, c1cc(cc(c1)S(=O)(=O)N2CC(C(C2)c3nc(no3)C4CCCC4)c5cccnc5)F], the IC50 was above 50 µM and the “Decoy – 0 Active – 1” value is on record as 0.

Consider `CC(O)c1ccc(S(=O)(=O)NC(c2ccccc2)c2nccn2C)cc1` (stereo not drawn) [C247, CC(c1ccc(cc1)S(=O)(=O)NC(c2ccccc2)c3nccn3C)O], for which the IC50 is above 50 µM and the “Decoy – 0 Active – 1” value was 0.

For `COc1ccc(N(CC(O)CNCCC(C)C)S(=O)(=O)c2ccc(C)cc2)cc1` (stereo not drawn) [C248, Cc1ccc(cc1)S(=O)(=O)N(CC(C[NH2+]CCC(C)C)O)c2ccc(cc2)OC], the IC50 was above 50 µM and the “Decoy – 0 Active – 1” value is recorded as 0.

Take `CCC(NS(=O)(=O)c1ccc(C)cc1)c1ccccc1OCC(=O)NC` (stereo not drawn) [C249, CCC(c1ccccc1OCC(=O)NC)NS(=O)(=O)c2ccc(cc2)C]: the IC50 is above 50 µM and the “Decoy – 0 Active – 1” value turned out to be 0.

Turning to `Cc1ccc(S(=O)(=O)N(CCC(=O)NC(C)CO)c2ccccc2)cc1` (stereo not drawn) [C250, Cc1ccc(cc1)S(=O)(=O)N(CCC(=O)NC(C)CO)c2ccccc2], the IC50 is above 50 µM and the “Decoy – 0 Active – 1” value came out at 0.

Regarding `COc1ccc(S(=O)(=O)Nc2ccccc2C(=O)N2CCOCC2)cc1Br` [C251, COc1ccc(cc1Br)S(=O)(=O)Nc2ccccc2C(=O)N3CCOCC3], the IC50 was above 50 µM and the “Decoy – 0 Active – 1” value was 0.

With `O=S(=O)(NC(c1ccccc1)c1ccccn1)c1ccc2c(c1)OCCCO2` (stereo not drawn) [C252, c1ccc(cc1)C(c2ccccn2)NS(=O)(=O)c3ccc4c(c3)OCCCO4], the IC50 is above 50 µM and the “Decoy – 0 Active – 1” value is 0.

As for `COc1cccc(N(CC(=O)N2CCC(C(N)=O)CC2)S(=O)(=O)c2ccc(C)cc2)c1` [C253, Cc1ccc(cc1)S(=O)(=O)N(CC(=O)N2CCC(CC2)C(=O)N)c3cccc(c3)OC], the IC50 was above 50 µM and the “Decoy – 0 Active – 1” value worked out at 0.

The IC50 is the midpoint of a concentration-inhibition curve.
